Reference: PMC3762062, “Cloning, overexpression and biocatalytic exploration of a novel Baeyer-Villiger monooxygenase from Aspergillus fumigatus Af293” (AMB Express, 2013)
Where two headings read alike, the source gives them in different places.

Columns and labels:
BVMOAf1 (PTDH-BVMOAf1) [1] = target: T1, BVMOAf1 (PTDH-BVMOAf1) (Aspergillus fumigatus, UniProt Q4WAZ0); test: NADPH consumption at […] nm; type: biochemical; conditions: air-saturated 50 mM Tris/HCl pH 8.0, 25°C
T1 construct: gene psoF; Truncated N-terminal BVMO domain (1614 bp, 367 C-terminal residues of the 905 deleted); pCRE2 vector, E. coli TOP10; fusion kept; natural Gln in place of His in the BVMO motif (H173Q)

BVMOAf1 (PTDH-BVMOAf1) [2] = target: T1, BVMOAf1 (PTDH-BVMOAf1); test: UV-Vis absorption of purified holo flavoprotein, FAD release by SDS; type: binding; conditions: FAD 100 μM in lysis buffer; Tris/HCl pH 8.0
CCSCc1ccccc1 = test: purified protein; type: biochemical, Aspergillus fumigatus; conditions: 100 μM NADPH, air-saturated 50 mM Tris/HCl pH 8.0, 25°C
[3] = 100 μM NADPH, read-out: K M (μ M )

T1 sequence (Q4WAZ0 1-538): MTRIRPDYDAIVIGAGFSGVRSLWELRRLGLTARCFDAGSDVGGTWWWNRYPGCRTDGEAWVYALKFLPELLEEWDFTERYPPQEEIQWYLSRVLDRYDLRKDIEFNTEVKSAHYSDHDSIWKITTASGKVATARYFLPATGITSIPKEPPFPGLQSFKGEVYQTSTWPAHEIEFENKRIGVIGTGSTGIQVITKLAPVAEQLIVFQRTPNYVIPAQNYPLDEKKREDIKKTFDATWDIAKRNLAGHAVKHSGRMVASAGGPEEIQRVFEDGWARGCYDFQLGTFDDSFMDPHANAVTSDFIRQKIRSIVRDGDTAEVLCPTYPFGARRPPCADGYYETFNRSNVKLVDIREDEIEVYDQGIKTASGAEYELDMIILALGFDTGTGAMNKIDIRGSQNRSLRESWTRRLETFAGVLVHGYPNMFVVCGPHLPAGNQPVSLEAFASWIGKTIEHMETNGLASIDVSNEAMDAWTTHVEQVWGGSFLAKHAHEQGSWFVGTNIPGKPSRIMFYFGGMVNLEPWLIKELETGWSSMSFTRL

With NC(=O)C1=CN([C@@H]2O[C@H](COP(=O)(O)OP(=O)(O)OC[C@H]3O[C@@H](n4cnc5c(N)ncnc54)[C@H](O)[C@@H]3O)[C@@H](O)[C@H]2O)C=CC1 the Km (BVMOAf1 (PTDH-BVMOAf1) [1]; [3]) was 118.8 ± 0.1 µM.

In the case of Cc1cc2nc3c(=O)[nH]c(=O)nc-3n(C[C@H](O)[C@H](O)[C@H](O)COP(=O)(O)OP(=O)(O)OC[C@H]3O[C@@H](n4cnc5c(N)ncnc54)[C@H](O)[C@@H]3O)c2cc1C [FAD], the “UV-Vis absorption of purified holo flavoprotein, FAD release by SDS” value (BVMOAf1 (PTDH-BVMOAf1) [2]) is reported as “yellow fractions containing FAD-bound protein”.

For NC(=O)C1=CN([C@@H]2O[C@H](COP(=O)(O)OP(=O)(O)OC[C@H]3O[C@@H](n4cnc5c(N)ncnc54)[C@H](OP(=O)(O)O)[C@@H]3O)[C@@H](O)[C@H]2O)C=CC1 [NADPH], the Km (BVMOAf1 (PTDH-BVMOAf1) [1]; rac-bicyclo[3.2.0]hept-2-en-6-one 2.0 mM (typical mixture)) was less than 5 µM.

Molecule NC(=O)C1=CN([C@@H]2O[C@H](COP(=O)(O)OP(=O)(O)OC[C@H]3O[C@@H](n4cnc5c(N)ncnc54)[C@H](OP(=O)(O)O)[C@@H]3O)[C@@H](O)[C@H]2O)C=CC1 [[drawing 5]] has a Km (BVMOAf1 (PTDH-BVMOAf1) [1]; [3]) of 179.8 ± 0.1 µM.

For “BVMOAf1 (PTDH-BVMOAf1) (Aspergillus fumigatus Af293)”, the Km (CCSCc1ccccc1) was 23.5 ± 0.1 µM, the kcat (CCSCc1ccccc1) was 0.47 ± 0.04 s⁻¹ and the kcat/Km (CCSCc1ccccc1) was 20000 M⁻¹ s⁻¹.
